The numbers were not newly measured in US6491617B1, “Medical devices that resist restenosis” (St. Jude Medical, Inc., priority 1999, dated 2002), which cites them from elsewhere.

For the series the following is noted: nitric oxide-releasing agent, test system not stated.

As for NaO[NONO]Na [nitro percide], the effective concentration was 25 nM.

As for `NCCCNCCCCNCCCN` [Spermine, H2N(CH2)3NH2^+(CH2)4N[NONO]^−(CH2)3NH2], the IC50 (read-out: IC-50 concentration, i.e., a concentration at 50 percent effectiveness) is 19.7 nM.
